# System: not listed separately
# Experiment: Effective permeability of compound at 100 uM at pH 7.4 by PAMPA
# Format: ADME
# Conditions: read-out: Peff
row,SMILES,Papp at 100 µM
1,COc1cc2c(cc1OC)C(=O)C(CC1C=CN(Cc3ccccc3)C=C1C(C)=O)CC2 (stereo unspecified) [listing 1 of 2 here],20.4 ×10⁻⁶ cm/s
2,COc1ccc(C(=O)CCC2C=CN(Cc3cccc(Cl)c3)C=C2C#N)cc1OC (stereo unspecified),15.1 ×10⁻⁶ cm/s
3,COc1ccc2c(c1)CCC(CC1C=CN(Cc3ccccc3Cl)C=C1C(C)=O)C2=O (stereo unspecified),21.2 ×10⁻⁶ cm/s
4,COc1ccc2c(c1)CCC(CC1C=CN(Cc3ccccc3C)C=C1C(N)=O)C2=O (stereo unspecified),18.8 ×10⁻⁶ cm/s
5,COc1ccc(C(=O)CCC2C=CN(Cc3cccc(Cl)c3)C=C2C(N)=O)cc1OC (stereo unspecified),18.9 ×10⁻⁶ cm/s
6,C[C@]12CCC(=O)C=C1CC[C@@H]1[C@@H]2C(=O)C[C@@]2(C)[C@H]1CC[C@]2(O)C(=O)CO [CORTISONE],16.8 to 20.3 ×10⁻⁶ cm/s
7,COc1ccc(C(=O)CCC2C=CN(Cc3cccc(Cl)c3)C=C2C(C)=O)cc1OC (stereo unspecified),18.2 ×10⁻⁶ cm/s
8,COc1cc2c(cc1OC)C(=O)C(CC1C=CN(Cc3ccccc3C)C=C1C(C)=O)C2 (stereo unspecified),19.1 ×10⁻⁶ cm/s

# System: not listed separately
# Experiment: in vitro
# Conditions: PAMPA, pH 7.4
row,SMILES,Papp at 250 µM
1,Cn1c(=O)c2[nH]cnc2n(C)c1=O.O [THEOPHYLLINE],0.4 to 0.66 ×10⁻⁶ cm/s

# System: not listed separately
# Experiment: Selectivity index, ratio of IC50 for equine serum BChE to IC50 for human erythrocyte AChE
# Conditions: not given
row,SMILES,Ratio IC50
1,COc1ccc2c(c1)CCC(Cc1cc[n+](Cc3ccccc3Cl)cc1C(C)=O)C2=O (stereo unspecified),8.6
2,COc1ccc2c(c1)CCC(Cc1cc[n+](Cc3ccc(Cl)cc3)cc1C(C)=O)C2=O (stereo unspecified),10.7
3,COc1ccc2c(c1)CCC(Cc1cc[n+](Cc3cccc(C)c3)cc1Br)C2=O (stereo unspecified),40
4,COC(=O)c1ccccc1C[n+]1ccc(CC2Cc3cc(OC)c(OC)cc3C2=O)c(C(=O)Oc2c(Cl)cc(Cl)cc2Cl)c1 (stereo unspecified),5.38
5,COc1ccc2c(c1)CCC(Cc1cc[n+](Cc3ccccc3Cl)cc1C(N)=O)C2=O (stereo unspecified),6.9
6,COc1ccc2c(c1)CCC(Cc1cc[n+](Cc3ccccc3C)cc1C(N)=O)C2=O (stereo unspecified),10.2
7,COc1ccc(C(=O)CCc2cc[n+](Cc3cccc(Cl)c3)cc2C(C)=O)cc1OC,22.2
8,COc1ccc2c(c1)CCC(Cc1cc[n+](Cc3cccc(F)c3)cc1C(C)=O)C2=O (stereo unspecified),7.5
9,COc1ccc2c(c1)CCC(Cc1cc[n+](Cc3cccc(C(F)(F)F)c3)cc1C(C)=O)C2=O (stereo unspecified),18
10,COc1cc2c(cc1OC)C(=O)C(Cc1cc[n+](Cc3ccccc3)cc1Br)C2 (stereo unspecified),4970
11,COc1ccc2c(c1)CCC(Cc1cc[n+](Cc3ccccc3C)cc1C(C)=O)C2=O (stereo unspecified),43.3
12,COc1ccc2c(c1)CCC(Cc1cc[n+](Cc3ccccc3C)cc1C(F)(F)F)C2=O (stereo unspecified),9.2
13,COc1ccc2c(c1)CCC(Cc1cc[n+](CC3CCCCC3)cc1C(C)=O)C2=O (stereo unspecified),1.6
14,COc1ccc2c(c1)CCC(Cc1cc[n+](Cc3cccc(Cl)c3)cc1C(C)=O)C2=O (stereo unspecified),6.9
15,CC(=O)c1c[n+](Cc2ccccc2C)ccc1CC1Cc2cc(OCC(F)(F)F)ccc2C1=O (stereo unspecified),112
16,COc1ccc2c(c1)CCC(Cc1cc[n+](Cc3ccc(C)cc3)cc1C(C)=O)C2=O (stereo unspecified),7.4
17,COc1ccc2c(c1)CCC(Cc1cc[n+](Cc3ccccc3F)cc1C(C)=O)C2=O (stereo unspecified),11
18,COc1ccc(C(=O)CCc2cc[n+](Cc3cccc(Cl)c3)cc2C#N)cc1OC,191
19,COc1ccc2c(c1)CCC(Cc1cc[n+](Cc3cccc(C)c3)cc1C(C)=O)C2=O (stereo unspecified),5.3

# Target: Cholinesterase (Equus caballus) (UniProt P81908)
# Experiment: Inhibition of equine serum BChE using butyrylthiocholine iodide as substrate at 10 uM preincubated for 5 mins followed by substrate addition measured every minute for 10 mins by Ellman's method relative to control
# Conditions: not given
# Sequence of Cholinesterase (Equus caballus) (P81908 whole entry): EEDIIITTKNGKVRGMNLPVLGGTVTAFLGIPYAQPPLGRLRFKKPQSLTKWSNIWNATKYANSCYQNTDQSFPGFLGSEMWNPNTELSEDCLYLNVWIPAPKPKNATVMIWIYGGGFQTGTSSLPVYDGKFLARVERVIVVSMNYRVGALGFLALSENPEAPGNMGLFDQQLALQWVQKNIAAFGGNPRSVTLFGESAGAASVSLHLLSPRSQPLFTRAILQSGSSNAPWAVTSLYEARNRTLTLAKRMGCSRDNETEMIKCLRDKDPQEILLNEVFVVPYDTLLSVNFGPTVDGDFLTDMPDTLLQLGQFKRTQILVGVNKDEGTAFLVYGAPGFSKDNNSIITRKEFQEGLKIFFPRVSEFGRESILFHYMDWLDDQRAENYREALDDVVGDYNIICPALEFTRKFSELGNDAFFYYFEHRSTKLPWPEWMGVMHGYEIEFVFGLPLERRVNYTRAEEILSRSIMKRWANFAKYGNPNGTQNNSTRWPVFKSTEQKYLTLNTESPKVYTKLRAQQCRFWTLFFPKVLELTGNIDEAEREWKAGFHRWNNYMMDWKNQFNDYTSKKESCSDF
row,SMILES,inhibition
1,COc1cc2c(cc1OC)C(=O)C(CC1C=CN(Cc3cccc(Cl)c3)C=C1C(N)=O)C2 (stereo unspecified),6%
2,COc1cc2c(cc1OC)C(=O)C(CC1C=CN(Cc3ccccc3)C=C1C(C)=O)CC2 (stereo unspecified) [listing 2 of 2 here],45%

# System: not listed separately
# Experiment: Half life in 2% riboflavine solution in PBS at 25 uM by HPLC-UV analysis
# Format: physicochemical
# Conditions: 2% riboflavine solution in PBS
row,SMILES,half-life at 25 µM
1,COc1cc2c(cc1OC)C(=O)C(CC1C=CN(Cc3cccc(Cl)c3)C=C1C(N)=O)C2 (stereo in doubt; 23h-A),24.6 min

# Target: Cholinesterase (Equus caballus, UniProt P81908)
# Experiment: not given
# Conditions: not given
# Sequence of Cholinesterase (P81908 whole entry): as above
row,SMILES,IC50
1,COC(=O)c1ccccc1C[n+]1ccc(CC2Cc3cc(OC)c(OC)cc3C2=O)c(C(=O)Oc2c(Cl)cc(Cl)cc2Cl)c1 (stereo unspecified),373 nM
2,COc1ccc2c(c1)CCC(Cc1cc[n+](Cc3ccccc3Cl)cc1C(N)=O)C2=O (stereo unspecified),2640 nM
3,COc1ccc2c(c1)CCC(Cc1cc[n+](Cc3ccccc3C)cc1C(N)=O)C2=O (stereo unspecified),9110 nM
4,COc1ccc(C(=O)CCc2cc[n+](Cc3cccc(Cl)c3)cc2C(C)=O)cc1OC,3200 nM
5,COc1ccc(C(=O)CCC2C=CN(Cc3cccc(Cl)c3)C=C2C#N)cc1OC (stereo unspecified),> 10000 nM
6,COc1ccc2c(c1)CCC(Cc1cc[n+](Cc3ccccc3C)cc1C(F)(F)F)C2=O (stereo unspecified),2240 nM
7,COc1ccc2c(c1)CCC(Cc1cc[n+](CC3CCCCC3)cc1C(C)=O)C2=O (stereo unspecified),341 nM
8,COc1ccc2c(c1)CCC(CC1C=CN(Cc3ccccc3C)C=C1C(N)=O)C2=O (stereo unspecified),> 10000 nM
9,COc1ccc(C(=O)CCC2C=CN(Cc3cccc(Cl)c3)C=C2C(N)=O)cc1OC (stereo unspecified),> 10000 nM
10,CC(=O)c1c[n+](Cc2ccccc2C)ccc1CC1Cc2cc(OCC(F)(F)F)ccc2C1=O (stereo unspecified),4150 nM
11,COc1ccc(C(=O)CCC2C=CN(Cc3cccc(Cl)c3)C=C2C(C)=O)cc1OC (stereo unspecified),> 10000 nM
12,COc1ccc(C(=O)CCc2cc[n+](Cc3cccc(Cl)c3)cc2C#N)cc1OC,4240 nM
13,COc1cc2c(cc1OC)C(=O)C(CC1C=CN(Cc3cccc(Cl)c3)C=C1C(N)=O)C2 (stereo in doubt; 23h-A),14300 nM

# Target: T1, Acetylcholinesterase (Homo sapiens, UniProt P22303)
# Experiment: Inhibition of human erythrocyte AChE using acetylthiocholine iodide as substrate at 10 uM preincubated for 5 mins followed by substrate addition measured every minute for 10 mins by Ellman's method relative to control
# Conditions: not given
# T1 sequence (P22303 whole entry): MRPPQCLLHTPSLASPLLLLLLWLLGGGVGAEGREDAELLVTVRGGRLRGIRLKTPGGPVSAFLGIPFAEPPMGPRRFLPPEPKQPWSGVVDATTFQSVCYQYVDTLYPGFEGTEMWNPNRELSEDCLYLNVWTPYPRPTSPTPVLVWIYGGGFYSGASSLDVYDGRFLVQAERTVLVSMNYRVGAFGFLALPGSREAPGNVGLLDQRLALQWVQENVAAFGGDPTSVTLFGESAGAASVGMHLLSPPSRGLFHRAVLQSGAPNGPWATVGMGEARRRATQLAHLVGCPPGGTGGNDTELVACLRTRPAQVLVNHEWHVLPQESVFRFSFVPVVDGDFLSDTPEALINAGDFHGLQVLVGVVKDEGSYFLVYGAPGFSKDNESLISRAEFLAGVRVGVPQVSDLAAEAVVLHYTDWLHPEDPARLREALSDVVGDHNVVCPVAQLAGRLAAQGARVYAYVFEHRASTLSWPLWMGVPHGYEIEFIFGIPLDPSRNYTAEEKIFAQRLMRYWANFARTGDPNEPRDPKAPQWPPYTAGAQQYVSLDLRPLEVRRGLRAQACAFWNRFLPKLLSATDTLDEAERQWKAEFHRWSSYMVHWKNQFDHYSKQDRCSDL
row,SMILES,inhibition
1,COc1cc2c(cc1OC)C(=O)C(CC1C=CN(Cc3cccc(Cl)c3)C=C1C(N)=O)C2 (stereo unspecified),29%
2,COc1cc2c(cc1OC)C(=O)C(CC1C=CN(Cc3ccccc3)C=C1C(C)=O)CC2 (stereo unspecified) [listing 2 of 2 here],36%

# Target: T1, Acetylcholinesterase
# Experiment: Inhibition of human erythrocyte AChE using acetylthiocholine iodide as substrate preincubated for 5 mins followed by substrate addition measured every minute for 10 mins by Ellman's method
# Conditions: not given
row,SMILES,IC50
1,COc1ccc2c(c1)CCC(Cc1cc[n+](Cc3ccccc3Cl)cc1C(C)=O)C2=O (stereo unspecified),29.5 nM
2,COC(=O)c1ccccc1C[n+]1ccc(CC2Cc3cc(OC)c(OC)cc3C2=O)c(C(=O)Oc2c(Cl)cc(Cl)cc2Cl)c1 (stereo unspecified),69.3 nM
3,COc1ccc2c(c1)CCC(Cc1cc[n+](Cc3ccccc3Cl)cc1C(N)=O)C2=O (stereo unspecified),379 nM
4,COc1ccc2c(c1)CCC(Cc1cc[n+](Cc3ccccc3C)cc1C(N)=O)C2=O (stereo unspecified),894 nM
5,COc1ccc(C(=O)CCc2cc[n+](Cc3cccc(Cl)c3)cc2C(C)=O)cc1OC,144 nM
6,COc1ccc(C(=O)CCC2C=CN(Cc3cccc(Cl)c3)C=C2C#N)cc1OC (stereo unspecified),923 nM
7,COc1ccc2c(c1)CCC(CC1C=CN(Cc3ccccc3Cl)C=C1C(C)=O)C2=O (stereo unspecified),> 10000 nM
8,COc1ccc2c(c1)CCC(Cc1cc[n+](Cc3ccccc3C)cc1C(F)(F)F)C2=O (stereo unspecified),242 nM
9,COc1ccc2c(c1)CCC(Cc1cc[n+](CC3CCCCC3)cc1C(C)=O)C2=O (stereo unspecified),210 nM
10,COc1ccc2c(c1)CCC(CC1C=CN(Cc3ccccc3C)C=C1C(N)=O)C2=O (stereo unspecified),> 10000 nM
11,COc1ccc(C(=O)CCC2C=CN(Cc3cccc(Cl)c3)C=C2C(N)=O)cc1OC (stereo unspecified),> 10000 nM
12,CC(=O)c1c[n+](Cc2ccccc2C)ccc1CC1Cc2cc(OCC(F)(F)F)ccc2C1=O (stereo unspecified),37.1 nM
13,COc1ccc(C(=O)CCC2C=CN(Cc3cccc(Cl)c3)C=C2C(C)=O)cc1OC (stereo unspecified),> 10000 nM
14,COc1ccc(C(=O)CCc2cc[n+](Cc3cccc(Cl)c3)cc2C#N)cc1OC,22.2 nM
15,COc1cc2c(cc1OC)C(=O)C(CC1C=CN(Cc3cccc(Cl)c3)C=C1C(N)=O)C2 (stereo in doubt; 23h-A),5340 nM

# From ChEMBL document CHEMBL4145472, “Novel donepezil-like N-benzylpyridinium salt derivatives as AChE inhibitors and their corresponding dihydropyridine "bio-oxidizable" prodrugs: Synthesis, biological evaluation and structure-activity relationship” (Eur J Med Chem, 2018)
